Experimental data from the RepoRT retention time repository.

Assay: HILIC, Waters Atlantis Premier BEH Z-HILIC, 100 × 2.1 mm, 1.7 µm, 40 °C, 0.17 mL/min, estimated dead time 1.3 min; A: water + 20 mM ammonium carbonate + 5 µM medronic acid; B: 10% water + 90% acetonitrile + 2 mM ammonium carbonate + 0.5 µM medronic acid; gradient (min/%B) 0/100 18/60 18.1/20 21.5/20 22/100 23.5/100 25.5/100
Settings: stereoisomer not certain

Compound	LC retention time [min]
Nc1ncnc2c1ncn2C1OC(COP(=O)(O)OP(=O)(O)O)C(O)C1O (centres undefined) [ADP]	11
Nc1ncnc2c1ncn2C1OC(COP(=O)(O)OP(=O)(O)OP(=O)(O)O)C(O)C1O (centres undefined) [ATP]	13
Nc1ncnc2c1ncn2C1OC(CO)C(O)C1O (centres undefined) [Adenosine]	4.21
C[N+](C)(C)CC(O)CC(=O)[O-] (centres undefined) [Carnitine]	9.73
CC(C)(COP(=O)(O)OP(=O)(O)OCC1OC(n2cnc3c(N)ncnc32)C(O)C1OP(=O)(O)O)C(O)C(=O)NCCC(=O)NCCS (centres undefined) [CoenzymeA]	11.9
O=C(CO)C(O)C(O)C(O)COP(=O)(O)O (centres undefined) [Fructose 6-phosphate]	10.9
O=P(O)(O)OCC1OC(O)C(O)C(O)C1O (centres undefined) [Glucose-6-phosphate]	12.4
OCC1OC(O)C(O)C(O)C1O (centres undefined) [Hexose]	7.55
O=C(O)CC(C(=O)O)C(O)C(=O)O (centres undefined) [Isocitric acid]	14.5
CC(O)C(=O)O (centres undefined) [Lactic Acid]	2.96
NC(=O)C1=CN(C2OC(COP(=O)(O)OP(=O)(O)OCC3OC(n4cnc5c(N)ncnc54)C(O)C3O)C(O)C2O)C=CC1 (centres undefined) [NADH]	8.45
NC(=O)c1ccc[n+](C2OC(COP(=O)(O)OP(=O)(O)OCC3OC(n4cnc5c(N)ncnc54)C(OP(=O)(O)O)C3O)C(O)C2O)c1 (centres undefined) [NADP]	13.4
NC(=O)c1ccc[n+](C2OC(COP(=O)(O)OP(=O)(O)OCC3OC(n4cnc5c(N)ncnc54)C(O)C3O)C(O)C2O)c1 (centres undefined) [NAD]	10.7
O=C(O)C(CO)OP(=O)(O)O (centres undefined) [Phosphoglyceric acid A]	12.2
O=C(O)CCC(=O)O [Succinic Acid]	9.16
CCC(=O)OC(CC(=O)[O-])C[N+](C)(C)C (centres undefined) [carnitine-C3]	6.63

Now from value to molecule:

LC retention time [min]	Compound
9.07	O=C(O)CCC(=O)C(=O)O [2-Oxoglutaric acid]
9.81	O=C(O)CCC(O)C(=O)O (centres undefined) [2-hydroxy glutaric acid]
8.86	Nc1ncnc2c1ncn2C1OC(COP(=O)(O)O)C(O)C1O (centres undefined) [AMP]
10.5	CC(=O)SCCNC(=O)CCNC(=O)C(O)C(C)(C)COP(=O)(O)OP(=O)(O)OCC1OC(n2cnc3c(N)ncnc32)C(O)C1OP(=O)(O)O (centres undefined) [Acetyl-CoA]
4.19	O=C(O)CCCCC1SCC2NC(=O)NC21 (centres undefined) [Biotin]
13.9	O=C(O)CC(O)(CC(=O)O)C(=O)O [Citric acid]
7.12	Cc1cc2nc3c(=O)[nH]c(=O)nc-3n(CC(O)C(O)C(O)COP(=O)(O)OP(=O)(O)OCC3OC(n4cnc5c(N)ncnc54)C(O)C3O)c2cc1C (centres undefined) [FAD]
15.2	O=P(O)(O)OCC1OC(O)(COP(=O)(O)O)C(O)C1O (centres undefined) [Fructose-1,6-bisphosphate]
15.3	Nc1nc2c(ncn2C2OC(COP(=O)(O)OP(=O)(O)OP(=O)(O)O)C(O)C2O)c(=O)[nH]1 (centres undefined) [GTP]
9.15	NC(CCC(=O)O)C(=O)O (centres undefined) [Glutamic acid]
10.4	NC(=O)CCC(N)C(=O)O (centres undefined) [Glutamine]
9.75	O=P(O)(O)OCC(O)CO (centres undefined) [Glycerol-3-phosphate]
5.97	CCC(C)C(N)C(=O)O (centres undefined) [Isoleucine]
5.72	CC(C)CC(N)C(=O)O (centres undefined) [Leucine]
13.8	C=C(OP(=O)(O)O)C(=O)O [PEP]
9.76	O=C(CO)COP(=O)(O)O [Triose phosphate]
9.68	CC(=O)NC1C(OP(=O)(O)OP(=O)(O)OCC2OC(n3ccc(=O)[nH]c3=O)C(O)C2O)OC(CO)C(O)C1O (centres undefined) [UDP-GlcNAc]
4.87	O=C1CC(C(=O)O)NC(=O)N1 (centres undefined) [dihydroorotic acid]
